# Results from patent publication US20100179158A1, “INHIBITORS OF CYCLIC AMP PHOSPHODIESTERASES” (priority 2007, published 2010).
# Tested on: PDE4A, PDE4B, PDE4D, PDE7A
# Experiment: Overall PDE inhibitor profile from the yeast assays (table footnotes, summary)
# Format: cell-based
# Conditions: not given
# Description: PDE inhibitors were identified using methods described herein, such as high throughput drug screens on genetically engineered fission yeast strains that express drug targets (e.g., PDE4A and/or PDE4B, which are anti-inflammatory targets). PDE inhibitors were identified based on their ability to stimulate growth and compounds were identified because they were effective in live cells. In addition, targets used in the assays are full-length proteins (as opposed to simply the catalytic domain) and the assay used included a built-in toxicity test, permeability test and stability test. The inhibitors identified display a very high degree of target specificity. Compounds identified include inhibitors that act on two of three PDE4 family enzymes and inhibitors that act on combinations of PDE4 and PDE7 strains. […] Limited inhibition of PDE4D by a PDE inhibitor is desirable, in view of the fact that inhibition of PDE4D causes emesis and cardiac arrhythmias. Subtype specificity was confirmed by means of cAMP assays.
# (§1) Cells were pregrown in EMM medium [MP Biomedicals (Solon, OH), 3% glucose, filter-sterilized to avoid carmelization, which would introduce variability into the optical density of the medium] containing from 0 mM to 2.5 mM cAMP (or either 0.5 mM or 1.0 mM cGMP). This was to repress expression of the fbp1-ura4 reporter prior to exposure of cells to 5FOA medium. Cells were grown at 30° C. to exponential phase (approximately 10^7 cells/ml). Cells were collected by centrifugation and resuspended in 5FOA medium, and 25 μl were transferred to 384-well microtiter dishes (untreated, with flat clear bottoms) that had been pre-filled with 25 μl 5FOA medium and pre-pinned with 100 nl of compounds (stock solutions were generally 10 mM). Starting cell concentrations ranged from 0.5×10^5 to 4×10^5 cells/ml depending on the screening strain. […] Other positive control dishes contained 5 mM cAMP in the 5FOA medium for PDEs that lack appropriate control compounds. Cultures were grown for 48 hours at 30° C., sealed in an airtight container with moist paper towels to prevent evaporation. Optical densities (OD600) of cultures were measured using a microplate reader. Bioinformatic analysis of the results to determine composite Z scores was performed as previously described (1, 3).
row,SMILES,PDE inhibitor profile in words (table footnote / summary)
1,COc1ccc2c(c1)[C@]1(C)CCC[C@@](C)(CO)C1CC2 (some centres unmarked) [Compound 2067M03],"(1) Strong PDE7A inhibitor, Weak to moderate PDE4A, 4B inhibitor"
2,CCOC(=O)c1sc2sc(C(=O)OCC)c(-c3ccco3)c2c1N [Compound 30-1],(4) Weak PDE4A inhibitor
3,COC(=O)C1=C(C)N(c2ccccc2Cl)C(=O)/C1=C\c1ccco1 [Compound 27-8],"(2) Strong PDE4A, 4B inhibitor"
4,CC(C)(C)c1c(C#N)sc2sc(C#N)c(N)c12 [Compound 30-4],(3) Little/no activity under conditions used
5,"O=C(O)Cn1c2ccc(Cl)cc2c2nc3ccccc3nc21 [1429, L06]","(4) Moderate PDE4A, 4B inhibitor"
6,N#Cc1sc2sc(C#N)c(-c3ccc(Cl)cc3)c2c1N [Compound 30-3],(3) Little/no activity under conditions used
7,"CCCCn1c2ccccc2c2nc3ccccc3nc21 [2015, P06]","(2)-(4) Moderate PDE4A, 4B inhibitors"
8,"CC(C)Cn1c2ccc(Br)cc2c2nc3ccccc3nc21 [2015, L04]",(5) Moderate 4B inhibitor
9,Cc1ccc2c(c1)CC[C@@H]1CC(=O)CC[C@@]21C [Compound 2158J12],(2) Strong PDE7A and PDE4s (including D) inhibitor
10,N#Cc1sc2sc(C#N)c(-c3ccco3)c2c1N [Compound 30],(2) Strong PDE7A inhibitor
11,"C=CCn1c2ccccc2c2nc3ccccc3nc21 [1427, P20]","(3) Strong 4B, Moderate 4A inhibitor"
12,"C=Cn1c2ccccc2c2nc3ccccc3nc21 [2033, H06]","(1) Moderate to strong PDE4A, 4B inhibitor"
13,COC(=O)C1=C(C)N(C)C(=O)/C1=C\c1cccs1 [Compound 27-1],(1) Strong PDEA5 inhibitor
14,"CCCCn1c2ccccc2c2nc3ccccc3nc21 [2013, I20]",(2) Strong PDE4A inhibitor
15,Cc1cc(C)nc(SCC[S+]([O-])c2ccc(C(C)(C)C)cc2)n1 (centres unmarked) [Compound 26-2],(2) Moderate 4A inhibitor
16,"C=CCn1c2ccc(Br)cc2c2nc3ccccc3nc21 [2019, G03]","(2)-(4) Moderate PDE4A, 4B inhibitors"
17,COC(=O)C1=C(C)N(Cc2ccccc2)C(=O)/C1=C\c1cccs1 [Compound 27-4],"(1) Strong PDE4A, 4B inhibitor"
18,N#Cc1sc2sc(C#N)c(-c3cccs3)c2c1N [Compound 30-2],(1) Weak PDE7A inhibitor
19,COC(=O)C1=C(C)N(C)C(=O)/C1=C\c1cccs1 [Compound 27-2],"(2) Strong PDE4A, 4B inhibitor; Moderate PDE4D inhibitor"
20,"CC(C)Cn1c2ccccc2c2nc3ccccc3nc21 [1422, M02]",(1) Strong PDE4A inhibitor
21,COC(=O)C1=C(C)N(CC(C)C)C(=O)/C1=C\c1cccs1 [Compound 27-3],"(1) Strong PDE4A, 4B inhibitor"
22,COC(=O)C1=C(C)N(c2cccc(C)c2)C(=O)/C1=C\c1cccs1 [Compound 27-5],"(2) Strong PDE4A, 4B inhibitor, Moderate PDE4D inhibitor"
23,CCC(=O)C1=C(C)N(c2cccc(C(F)(F)F)c2)C(=O)/C1=C\c1cccs1 [Compound 27-7],(3) Strong PDE4A5 inhibitor
24,"C=CCn1c2ccc(Br)cc2c2nc3ccccc3nc21 [2017, C18]","(2)-(4) Moderate PDE4A, 4B inhibitors"
25,CCC(=O)C1=C(C)N(c2ccc(F)cc2)C(=O)/C1=C\c1cccs1 [Compound 27-6],"(4) Strong PDE4A, 4B inhibitor, Moderate PDE7A inhibitor"

# Target: T1, PDE7A (Homo sapiens, UniProt Q13946)
# T1 construct: targets used in the assays are full-length proteins (as opposed to simply the catalytic domain); expressed in transfected cells; host or cells: Schizosaccharomyces pombe, gene integrated at the cgs2 locus
# Experiment: Fission yeast 5FOA growth assay, strain expressing PDE7A
# Format: cell-based
# Conditions: 5FOA growth
# Method: as §1
# T1 sequence (Q13946 whole entry, the tested form may be a part): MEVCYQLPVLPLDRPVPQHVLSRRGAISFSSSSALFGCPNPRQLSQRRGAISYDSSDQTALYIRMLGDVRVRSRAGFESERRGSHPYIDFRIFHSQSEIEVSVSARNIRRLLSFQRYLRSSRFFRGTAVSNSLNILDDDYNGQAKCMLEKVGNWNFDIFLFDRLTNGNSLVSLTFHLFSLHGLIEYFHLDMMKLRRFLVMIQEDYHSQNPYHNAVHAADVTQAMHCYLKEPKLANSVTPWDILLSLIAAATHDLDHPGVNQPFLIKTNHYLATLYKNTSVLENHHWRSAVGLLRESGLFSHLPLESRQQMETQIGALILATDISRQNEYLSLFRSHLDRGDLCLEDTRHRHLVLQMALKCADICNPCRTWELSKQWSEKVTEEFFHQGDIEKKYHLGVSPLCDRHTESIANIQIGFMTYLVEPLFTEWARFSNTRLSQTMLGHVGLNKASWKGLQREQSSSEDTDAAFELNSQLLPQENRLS
row,SMILES,"ED50, PDE 7A"
1,CC(C)(C)c1c(C#N)sc2sc(C#N)c(N)c12 [Compound 30-4],ND ND weak activity ND ND
